Target: POLRMT (Homo sapiens (Human), UniProt O00411)
Test: homogeneous TR-FRET assay of mitochondrial transcription (inhibition of POLRMT)
Type: biochemical
Settings: 7.5 nM POLRMT, 15 nM TFB2M, 30 nM TFAM, 0.5 nM DNA template, 500 μM NTPs, 37° C., 60 minutes
Description: The inhibitory activity of the compounds of the present invention against POLRMT were determined by assays based on Bergbrede, T., et al., “An adaptable high-throughput technology enabling the identification of specific transcription modulators,” SLAC Discov., 22, 378-386 (2017).
The ability of some compounds of the present invention to inhibit POLRMT were determined in a homogeneous TR-FRET Assay using high-throughput screening in a 384-well plate format. This method is used to monitor the activity of mitochondrial transcription through measurement of its product, a 407 bp long RNA transcript. Detection of the product is facilitated by hybridization of two DNA-oligonucleotide probes to specific and adjacent sequences within the RNA product sequence. Upon annealing of the probes, two fluorophores are coupled directly to an acceptor nucleotide probe (ATT0647, 5′), or introduced via a coupled streptavidin with a biotinylated donor nucleotide probe (Europium cryptate) that is brought into sufficient proximity to serve as a fluorescence-donor-acceptor pair. Thus, a FRET signal at 665 nm is generated upon excitation at 340 nm.
Proteins used as transcription factors (POLRMT: NP_005026.3, TFAM: NP_003192.1, TFB2M: NP_071761.1) are diluted from their stocks to working concentrations of 1 μM, 20 μM and 4 μM respectively, in a dilution buffer containing 20 mM Tris-HCl (pH 8.0), 200 mM NaCl, 10% (v/v) glycerol, 1 mM Dithiothreitol (DTT), 0.5 mM EDTA.
DNA template is a pUC18 plasmid with the mitochondrial light strand promotor sequence (1-477) cloned between HindIII and BamHI sites. The DNA template is restriction linearized proximal to the promotor 3′-end (pUC-LSP). The reaction mixture (10 uL) containing 7.5 nM POLRMT, 15 nM of TFB2M, 30 nM of TFAM, 0.5 nM of DNA template and 500 μM nucleotide triphosphate mix (NTPs) in a reaction buffer (containing 10 mM Tris-HCl (pH 7.5), 10 mM MgCl2, 40 mM NaCl, 10 mM DTT, 0.005% (w/v) Tween-20, 160 units/ml Rnase inhibitor and 0.1 mg/mL BSA) are dispensed to compounds in microplates, using a Thermo Multidrop® dispenser, and incubated at 37° C. in a VWR INCU-Line incubator for 60 minutes after mixing. No nucleotide triphosphate mix is added to negative control samples. Microplates with compounds to be tested in the assay are prepared from 10 mM compound stocks in 100% DMSO, equal amounts of DMSO without any compound are added to positive control and negative control samples.
During the incubation, a mix of the detection reagents is prepared in a buffer such that the enzymatic reaction is terminated due to chelating of Mg-ions and increased ionic strength, containing 50 mM Tris-HCl (pH 7.5), 700 mM NaCl, 20 mM EDTA, and 0.010% (w/v) Tween-20. Europium-streptavidin is pre-incubated with a 200-fold molar excess of a random sequence oligonucleotide to block unspecific binding of oligo, for two hours at ambient temperature in the dark. Afterwards, the blocked Europium-streptavidin is kept on ice until use.
At the end of the enzymatic reaction time, 5 μL detection oligo mix in the detection buffer is added, and assay plates are mixed and kept at ambient temperature for one hour, protected from light. The concentration of the Acceptor nucleotide oligo (e.g., ATTO647N-5′-[…]-3′) and Donor nucleotide oligo (e.g., bio-5′-AACACATCTCT(-bio)GCCAAACCCCA-bio-3′) in each assay well is 1 nM, and 3 nM, respectively.
After incubation with oligo mix, 5 μL of pre-blocked Europium-streptavidin reagent is dispensed to each assay well, assay plates are again mixed and kept at ambient temperature for one hour, protected from light.
The generated signal is measured with BMG Pherastar microtiter plate reader with a TRF light unit, using excitation at 340 nm, an integration time of 200 μs, and a delay time of 100 μs, before detection at 620 nm and 665 nm. The ratio of donor- and acceptor-fluorescence is used as a measure of the generated transcript product (i.e. enzymatic activity).

Sequence of POLRMT (O00411 42-1230): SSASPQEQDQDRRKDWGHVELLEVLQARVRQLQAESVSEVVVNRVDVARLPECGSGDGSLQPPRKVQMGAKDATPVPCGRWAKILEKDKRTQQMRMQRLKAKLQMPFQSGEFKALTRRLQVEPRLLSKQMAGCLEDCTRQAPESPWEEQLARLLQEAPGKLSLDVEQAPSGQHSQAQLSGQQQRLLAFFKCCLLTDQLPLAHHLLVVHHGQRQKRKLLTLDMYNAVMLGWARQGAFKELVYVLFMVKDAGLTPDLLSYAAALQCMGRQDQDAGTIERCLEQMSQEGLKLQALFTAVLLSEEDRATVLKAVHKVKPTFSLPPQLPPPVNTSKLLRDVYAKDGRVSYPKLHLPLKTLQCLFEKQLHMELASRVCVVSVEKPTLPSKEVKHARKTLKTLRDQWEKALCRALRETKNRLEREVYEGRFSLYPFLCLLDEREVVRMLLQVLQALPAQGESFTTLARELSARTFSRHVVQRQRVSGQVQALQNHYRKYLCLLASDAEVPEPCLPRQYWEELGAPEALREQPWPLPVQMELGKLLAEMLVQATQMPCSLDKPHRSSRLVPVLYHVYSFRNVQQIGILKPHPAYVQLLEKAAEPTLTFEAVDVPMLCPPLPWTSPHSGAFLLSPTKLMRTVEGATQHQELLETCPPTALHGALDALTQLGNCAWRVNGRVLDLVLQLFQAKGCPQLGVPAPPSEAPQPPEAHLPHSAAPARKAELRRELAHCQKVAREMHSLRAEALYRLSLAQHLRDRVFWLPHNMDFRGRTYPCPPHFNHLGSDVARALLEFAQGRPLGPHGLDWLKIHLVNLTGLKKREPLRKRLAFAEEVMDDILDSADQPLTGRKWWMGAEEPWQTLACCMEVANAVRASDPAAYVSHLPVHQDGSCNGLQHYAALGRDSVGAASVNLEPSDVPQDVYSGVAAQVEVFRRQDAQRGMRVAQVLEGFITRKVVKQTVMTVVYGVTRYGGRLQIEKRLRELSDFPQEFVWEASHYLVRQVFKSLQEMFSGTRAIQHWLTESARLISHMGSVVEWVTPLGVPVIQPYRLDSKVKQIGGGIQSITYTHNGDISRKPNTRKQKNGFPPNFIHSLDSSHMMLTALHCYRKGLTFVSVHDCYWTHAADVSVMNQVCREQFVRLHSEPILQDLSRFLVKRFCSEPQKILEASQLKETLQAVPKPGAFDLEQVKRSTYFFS

Compound	IC50 [nM]
Cc1ccccc1-c1cc(=O)oc2cc(O)cc(C)c12 [Example 37, 7-hydroxy-5-methyl-4-(o-tolyl)-2H-chromen-2-one]	2000
Cc1ccccc1-c1cc(=O)oc2cc(OCC3CCCCO3)ccc12 (single isomer, unassigned) [Example 40, 7-((tetrahydro-2H-pyran-2-yl)methoxy)-4-(o-tolyl)-2H-chromen-2-one]	3000
Cc1cc(O[C@H](C)C(=O)N(C)C)cc2oc(=O)cc(-c3ccc(F)cc3)c12 [Example 20, (R)-2-((4-(4-fluorophenyl)-5-methyl-2-oxo-2H-chromen-7-yl)oxy)-N,N-dimethylpropanamide]	2000
Cc1cc(O[C@H](C)C(=O)N2CCCCC2)cc2oc(=O)cc(-c3ccc(F)cc3)c12 [Example 19, 4-(4-fluorophenyl)-5-methyl-7-[(1R)-1-methyl-2-oxo-2-(1-piperidyl)ethoxy]chromen-2-one]	500
Cc1ccccc1-c1cc(=O)oc2cc(OC3CCCOC3)ccc12 (single isomer, unassigned) [Example 48, 7-((tetrahydro-2H-pyran-3-yl)oxy)-4-(o-tolyl)-2H-chromen-2-one]	3000
Cc1cc(OCC(C)C)cc2oc(=O)cc(-c3ccccc3)c12 [Example 24, 7-isobutoxy-5-methyl-4-phenyl-2H-chromen-2-one]	93000
O=c1cc(-c2ccc(F)cc2Cl)c2ccc(O)cc2o1 [Example 13, 4-(2-chloro-4-fluorophenyl)-7-hydroxy-2H-chromen-2-one]	3000
Cc1ccccc1-c1cc(=O)oc2cc(OC(C)C#N)ccc12 (single isomer, unassigned) [Example 43, 2-((2-oxo-4-(o-tolyl)-2H-chromen-7-yl)oxy)propanenitrile]	1000
CCCOc1ccc2c(-c3ccccc3OC)cc(=O)oc2c1 [Example 35, 4-(2-methoxyphenyl)-7-propoxy-2H-chromen-2-one]	6000
Cc1cc(O)cc2oc(=O)cc(-c3ccccc3)c12 [Example 22, 7-hydroxy-5-methyl-4-phenyl-2H-chromen-2-one]	34000
O=C([C@@H](CO)Oc1ccc2c(-c3ccc(F)cc3Cl)cc(=O)oc2c1)N1CCCCC1 [Example 15, (R)-4-(2-chloro-4-fluorophenyl)-7-((3-hydroxy-1-oxo-1-(piperidin-1-yl)propan-2-yl)oxy)-2H-chromen-2-one]	400
Cc1ccccc1-c1cc(=O)oc2cc(OCCc3ccccc3)ccc12 [Example 07, 7-phenethoxy-4-(o-tolyl)-2H-chromen-2-one]	4000
Cc1ccccc1-c1cc(=O)oc2cc(OCC3CCOCC3)ccc12 [Example 29, 7-((tetrahydro-2H-pyran-4-yl)methoxy)-4-(o-tolyl)-2H-chromen-2-one]	1000
CCOCC(Oc1ccc2c(-c3ccccc3C)cc(=O)oc2c1)C(N)=O (stereo not drawn) [Example 99]	4000
Cc1ccccc1-c1cc(=O)oc2cc(OCCO)ccc12 [Example 03, 7-(2-hydroxyethoxy)-4-(o-tolyl)-2H-chromen-2-one]	2000
CCCOc1ccc2c(-c3ccncc3C)cc(=O)oc2c1 [Example 54, 4-(3-methylpyridin-4-yl)-7-propoxy-2H-chromen-2-one]	3000
COCCOc1ccc2c(-c3ccccc3C)cc(=O)oc2c1 [Example 09, 7-(2-methoxyethoxy)-4-(o-tolyl)-2H-chromen-2-one]	900

More lines, now with the values ahead:

IC50 [nM]	Compound
5000	CCCOc1ccc2c(-c3cnc(Cl)cc3C)cc(=O)oc2c1 [Example 55, 4-(6-chloro-4-methylpyridin-3-yl)-7-propoxy-2H-chromen-2-one]
13000	COCC(Oc1ccc2c(-c3ccc(F)cc3Cl)cc(=O)oc2c1)C(N)=O (single isomer, unassigned) [Example 74, 2-((4-(2-chloro-4-fluorophenyl)-2-oxo-2H-chromen-7-yl)oxy)-3-methoxypropanamide]
19000	CC(=O)N1CC[C@@H](Oc2ccc3c(-c4ccccc4C)cc(=O)oc3c2)C1 [Example 62, (R)-7-((1-acetylpyrrolidin-3-yl)oxy)-4-(o-tolyl)-2H-chromen-2-one]
200	Cc1ccccc1-c1cc(=O)oc2cc(OCC(N)=O)ccc12 [Example 108, 2-((2-oxo-4-(o-tolyl)-2H-chromen-7-yl)oxy)acetamide]
2000	COC[C@H](Oc1ccc2c(-c3ccccc3C)cc(=O)oc2c1)C(=O)O [Example 104, (S)-3-methoxy-2-((2-oxo-4-(o-tolyl)-2H-chromen-7-yl)oxy)propanoic acid]
500	COCC(Oc1ccc2c(-c3ccccc3Cl)cc(=O)oc2c1)C(N)=O (single isomer, unassigned) [Example 96, 2-((4-(2-chlorophenyl)-2-oxo-2H-chromen-7-yl)oxy)-3-methoxypropanamide]
16000	COC[C@H](Oc1ccc2c(-c3ccccc3C)cc(=O)oc2c1)C(N)=O [Example 67, (S)-3-methoxy-2-((2-oxo-4-(o-tolyl)-2H-chromen-7-yl)oxy)propenamide]
14000	COCC(Oc1ccc2c(-c3ccccc3Cl)cc(=O)oc2c1)C(N)=O (single isomer, unassigned) [Example 95, 2-((4-(2-chlorophenyl)-2-oxo-2H-chromen-7-yl)oxy)-3-methoxypropanamide]
200	COCC(Oc1ccc2c(-c3ccccc3C)cc(=O)oc2c1)C(=O)N1CCC1 (single isomer, unassigned) [Example 89, 7-((1-(azetidin-1-yl)-3-methoxy-1-oxopropan-2-yl)oxy)-4-(o-tolyl)-2H-chromen-2-one]
3000	COCC(Oc1ccc2c(-c3ccc(F)cc3Cl)cc(=O)oc2c1)C(=O)O (stereo not drawn) [Example 73, 2-((4-(2-chloro-4-fluorophenyl)-2-oxo-2H-chromen-7-yl)oxy)-3-methoxypropanoic acid]
800	COCC(Oc1ccc2c(-c3ccccc3C)cc(=O)oc2c1)C(=O)O (stereo not drawn) [Example 65, 3-methoxy-2-((2-oxo-4-(o-tolyl)-2H-chromen-7-yl)oxy)propanoic acid]
900	CNC(=O)[C@@H](COC)Oc1ccc2c(-c3ccccc3C)cc(=O)oc2c1 [Example 70, (R)-3-methoxy-N-methyl-2-((2-oxo-4-(o-tolyl)-2H-chromen-7-yl)oxy)propenamide]
400	COC[C@@H](Oc1ccc2c(-c3ccccc3C)cc(=O)oc2c1)C(=O)O [Example 101, (R)-3-methoxy-2-((2-oxo-4-(o-tolyl)-2H-chromen-7-yl)oxy)propanoic acid]
500	C[C@@H](Oc1ccc2c(-c3ccc(F)cc3Cl)cc(=O)oc2c1)C(=O)N1CCS(=O)(=O)CC1 [Example 110, (R)-4-(2-chloro-4-fluorophenyl)-7-((1-(1,1-dioxidothiomorpholino)-1-oxopropan-2-yl)oxy)-2H-chromen-2-one]
30	Cc1ccccc1-c1cc(=O)oc2cc(OC(COC(F)(F)F)C(=O)O)ccc12 (stereo not drawn) [Example 106, 2-((2-oxo-4-(o-tolyl)-2H-chromen-7-yl)oxy)-3-(trifluoromethoxy)propanoic acid]
40	COC(=O)C(COC(F)(F)F)Oc1ccc2c(-c3ccccc3C)cc(=O)oc2c1 (stereo not drawn) [Example 105, methyl 2-((2-oxo-4-(o-tolyl)-2H-chromen-7-yl)oxy)-3-(trifluoromethoxy)propanoate]

Reference: patent publication US20240368106A1, “HYDROXY AND ALKOXY COUMARINS AS MODULATORS OF POLRMT” (Pretzel Therapeutics, Inc., priority 2021, published 2024)
